Assays:
ERβ = molecular target: T1, ERβ (Homo sapiens, UniProt Q92731); test: ERE-tk luciferase transfection assay, U2OS cells cotransfected with ERβ; format: cell-based
T1 construct: expressed in transfected cells; host or cells: U2OS

hAR = molecular target: T2, hAR (Homo sapiens, UniProt P10275); test: TAT3-luciferase reporter, U2OS cells cotransfected with hAR; format: cell-based; conditions: 5 μM + 10 nM dihydrotestosterone, 24 hours
T2 construct: expressed in transfected cells; host or cells: U2OS
T2 sequence (P10275 1-920): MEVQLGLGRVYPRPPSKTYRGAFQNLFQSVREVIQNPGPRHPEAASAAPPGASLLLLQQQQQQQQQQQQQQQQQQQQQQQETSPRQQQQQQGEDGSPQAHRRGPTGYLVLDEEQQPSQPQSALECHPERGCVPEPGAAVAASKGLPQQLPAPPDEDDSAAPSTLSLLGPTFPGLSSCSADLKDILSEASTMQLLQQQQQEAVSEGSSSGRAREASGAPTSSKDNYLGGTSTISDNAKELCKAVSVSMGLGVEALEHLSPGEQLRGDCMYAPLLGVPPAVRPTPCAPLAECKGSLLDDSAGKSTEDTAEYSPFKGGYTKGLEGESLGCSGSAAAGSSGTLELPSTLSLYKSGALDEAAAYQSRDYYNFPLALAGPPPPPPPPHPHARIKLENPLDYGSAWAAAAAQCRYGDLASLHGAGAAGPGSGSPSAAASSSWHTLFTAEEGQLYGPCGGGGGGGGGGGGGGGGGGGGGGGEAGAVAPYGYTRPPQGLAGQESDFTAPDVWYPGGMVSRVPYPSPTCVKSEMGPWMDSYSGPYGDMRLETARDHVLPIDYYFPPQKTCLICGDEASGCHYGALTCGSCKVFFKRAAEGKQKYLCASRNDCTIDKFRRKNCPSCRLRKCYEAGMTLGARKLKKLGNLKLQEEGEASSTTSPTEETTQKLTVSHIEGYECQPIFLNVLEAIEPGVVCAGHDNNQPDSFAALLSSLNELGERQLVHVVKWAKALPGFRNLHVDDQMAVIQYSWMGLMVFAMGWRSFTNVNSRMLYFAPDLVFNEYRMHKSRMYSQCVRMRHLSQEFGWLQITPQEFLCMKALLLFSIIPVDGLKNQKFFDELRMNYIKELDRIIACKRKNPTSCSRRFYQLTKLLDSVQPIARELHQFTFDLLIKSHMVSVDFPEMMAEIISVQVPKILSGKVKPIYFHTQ

U2OS-ERα cells [1] = test: NKG2E mRNA real-time PCR in U2OS-ERα cells; format: cell-based, human
Procedure: (FIG. 1a) Chemical structure of 2′, 3′, 4′-THC. (FIG. 1b) U2OS cells cotransfected with ERE tk-luciferase and ERα (left panel) or ERβ (right panel). After transfection the cells were treated for 24 hours with 10 nM estradiol and 5 μM 2′, 3′, 4′-THC alone or in combination. Cells were lysed and luciferase activity was measured. RLU is relative light units. Error bars are the Mean±SEM. **P≤0.01. […] The total cellular RNA was extracted and real-time PCR for KRT19 mRNA was performed as described in Materials and Methods. […] Error bars are ±SEM. *P≤0.05, **** P≤0.0001.
(FIGS. 6a, 6b) Gene expression of (FIG. 6a) KRT73 and (FIG. 6b) NKG2E in U2OS-ERα cells treated with 10 nM estradiol, 5 μM 2′, 3′, 4′-THC, 1μM ICI alone or in combination for 24 hours. […] Error bars are ±SEM. […] After transfection, luciferase activities were measured as described in the Methods. RLU is relative light units and the data shown are mean ±SEM. (FIG. 6c). […] After transfection, luciferase activities were measured as described in the Methods. RLU is relative light units and the data shown are mean ±SEM (FIG. 6d).

U2OS-ERα cells [2] = test: Microarray gene regulation in U2OS-ERα cells; format: cell-based, human
Procedure: Total cellular RNA was isolated utilizing the Aurum™ RNA isolation kit (Bio-Rad, Hercules, Calif.) per the manufacturer's directions. RNA isolates were first quantified by nanodrop®, and then qualitatively evaluated by the Bio-Rad Experion™ system per the manufacturer's instructions. Biotin-labeled cRNA samples were prepared using 750 ng of total RNA. Biotin-labeled samples were evaluated by both 260/280 absorbance spectrophotometry and capillary electrophoresis. Labeled cRNA samples were hybridized overnight against Human genome HG U133A-2.0 GeneChip® arrays, (Affymetrix, Santa Clara, Calif.). All treatments were done in triplicate with the same batch of microarrays. The data was analyzed as previously described (Saunier, E. F., et al. Estrogenic plant extracts reverse weight gain and fat accumulation without causing mammary gland or uterine proliferation. PloS one 6, e28333 (2011)).
FIGS. 2a-2f2′, 3′, 4′-THC behaves as a unique coagonist on gene expression in U2OS-ERα cells. […] Expression was assessed by up regulation or down regulation of 3-fold or more and a P-value≤0.05. […] Error bars are ±SEM.

ERα LBD = molecular target: T3, ERα LBD (Homo sapiens, UniProt P03372); format: binding; conditions: 5 μM 2′,3′,4′-THC alone
T3 construct: Purified ERα LBD containing amino acids 315-545 used by Brzozowski et al; histidine-tag; purchased GenScript
T3 sequence (P03372 315-545): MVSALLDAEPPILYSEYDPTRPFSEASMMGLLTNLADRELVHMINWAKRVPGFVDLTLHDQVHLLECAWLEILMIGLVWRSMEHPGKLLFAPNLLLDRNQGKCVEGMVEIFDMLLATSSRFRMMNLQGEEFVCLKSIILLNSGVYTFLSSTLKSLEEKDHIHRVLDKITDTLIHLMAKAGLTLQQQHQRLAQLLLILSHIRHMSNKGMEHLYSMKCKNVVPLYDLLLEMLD

T1 sequence (Q92731 whole entry): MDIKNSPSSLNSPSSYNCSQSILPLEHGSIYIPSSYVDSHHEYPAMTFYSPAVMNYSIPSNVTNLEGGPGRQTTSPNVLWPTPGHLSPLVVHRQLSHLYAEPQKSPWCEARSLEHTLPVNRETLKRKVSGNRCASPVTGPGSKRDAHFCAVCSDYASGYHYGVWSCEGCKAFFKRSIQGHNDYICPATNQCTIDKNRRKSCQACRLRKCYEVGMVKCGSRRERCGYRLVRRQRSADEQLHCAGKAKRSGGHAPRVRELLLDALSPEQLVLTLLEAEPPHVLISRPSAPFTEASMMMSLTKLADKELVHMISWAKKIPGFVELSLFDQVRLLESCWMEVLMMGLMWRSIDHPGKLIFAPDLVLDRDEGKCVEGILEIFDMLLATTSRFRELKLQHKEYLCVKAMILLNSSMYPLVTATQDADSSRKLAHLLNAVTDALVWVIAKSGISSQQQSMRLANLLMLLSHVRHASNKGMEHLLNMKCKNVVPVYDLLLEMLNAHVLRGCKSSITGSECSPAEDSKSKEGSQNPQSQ

## O=C(/C=C/c1ccccc1)c1ccc(O)c(O)c1O [2′, 3′, 4′-THC, 2′, 3′, 4′-trihydroxychalcone]
ERβ; ERβ, 5 μM + 10 nM E2, 24 hours
  luciferase activity with E2: synergistic increase
ERβ; U2OS cells transfected with ERβ, 5 μM, 24 hours
  activity on ERE luciferase, compound alone: inactive
hAR
  synergy with receptor agonist: no synergy
U2OS-ERα cells [1]; 10 nM E2, 5 μM 2′,3′,4′-THC, 1 μM tamoxifen or raloxifene, 24 hours
  NKG2E gene expression, compound alone: no effect
U2OS-ERα cells [1]; 5 μM + 1 μM tamoxifen or raloxifene
  synergy in combination with tamoxifen or raloxifene: No synergy
U2OS-ERα cells [1]; in combination with 10 nM E2, 24 hours
  effect on E2-induced NKG2E gene expression: synergistic activation
U2OS-ERα cells [2]; 10 nM E2 or 5 μM 2′,3′,4′-THC, 3-fold or more, P≤0.05
  number of genes regulated, compound alone: 31 genes
U2OS-ERα cells [2]; 5 μM + 10 nM E2
  genes regulated by the combination that were also regulated by E2: 534 genes
  number of genes regulated by the 2′,3′,4′-THC/E2 combination: 1,358 genes
  unique genes only regulated by the 2′,3′,4′-THC/E2 combination: 824 genes
ERα LBD
  melting temperature of ERα LBD: no effect

— patent US20190008797A1, “ESTROGEN RECEPTOR ALPHA COLIGANDS, AND METHODS OF USE THEREOF” (priority 2016, published 2019)
